Key:
[1] = test system: anesthetized cats (evoked responses of anterior tibial muscle); assay: animal or person; conditions: for ED50 / RI (recovery index) / Onset: cat; for ED50: intravenous dose causing 50% neuromuscular block; for RI (recovery index): spontaneous recovery, 25-75% neuromuscular response; for Onset: time to 80-85% neuromuscular block; for VB (vagal block) / ΔBP (change in arterial blood pressure) / ΔH (change in heart rate): in vivo
From the text: a) Adult, male albino rats were anesthetized with pentobarbital injected intraperitoneally. The trachea was cannulated for artificial respiration via a small animal respirator. The carotid artery was cannulated for recording blood pressure via a transducer and heart rate by a cardiotachograph on a polygraph. One external jugular vein was cannulated for i.v. drug administration. Neuromuscular function was monitored by electromyography, recording evoked responses from the anterior tibial muscle as a result of supramaximal nerve stimuli consisting of single or “train-of-four” rectangular pulses of 0.1-0.2 msec duration every 10-12 seconds, delivered to the sciatic or common peroneal nerve by a laboratory nerve stimulator. Another mode of stimulation included repeated single stimuli delivered at 0.1 Hz or 1 Hz. […] The agents were dissolved in physiologic saline and injected intravenously at appropriate time intervals. The intensity, onset, and duration of neuromuscular block and its type were determined with each agent. Through administering several doses, the doses corresponding to 50%, 80% and 90% neuromuscular block were determined. All agents were compared with selected standard neuromuscular blocking compounds, e.g. succinylcholine, pancuronium, mivacurium, or rocuronium.
(§1) Onset=time in minutes to 80-85% neuromuscular block.
(§2) RI=recovery index, minutes, spontaneous recovery, 25-75% neuromuscular response.
(§3) VB=vagal block, %, at 80-85% neuromuscular blocking dose.
ΔHR=change in heart rate, %, at 80-85% neuromuscular blocking dose.
ΔBP=change in arterial blood pressure, %, at 80-85% neuromuscular blocking dose.
b) Adult cats were anesthetized with a mixture of 70 mg/kg alpha chloralose and 0.5 g/kg ethylurethane intraperitoneally. One thigh was fixed in a vertical position by means of a pin at the lower end of the femur. Needle electrodes were placed on the sciatic or the common peroneal nerve. A tendon of the anterior tibial muscle was attached to a force transducer and the muscle responses evoked, as described under a), were recorded. Both electromyographic and mechanomyographic responses can be quantified. Blood pressure and heart rate changes were recorded from appropriately cannulated arteries via a blood pressure transducer and cardiotachograph.

[2] = test system: anesthetized rats (evoked responses of anterior tibial muscle); assay: In vivo neuromuscular block and cardiovascular side effects, anesthetized rat (Example 8, Table 3); conditions: rat; for ED50: intravenous dose causing 50% neuromuscular block; for RI (recovery index): spontaneous recovery, 25-75% neuromuscular response; for Onset: time to 80-85% neuromuscular block
Method in brief: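 Pentobarbital-anesthetized (i.p.), ventilated adult male rats given saline-dissolved agents i.v.; anterior tibial EMG responses to supramaximal single or train-of-four sciatic/peroneal stimuli, plus 0.1 or 1 Hz stimulation. Doses for 50%, 80%, 90% block derived. Onset: minutes to 80-85% block; RI: 25-75% spontaneous recovery; vagal block, heart rate and blood pressure changes (%) at 80-85% blocking dose.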

[3] = test system: anesthetized monkeys; assay: In vivo neuromuscular block and cardiovascular side effects, monkey (Example 8, Table 6); conditions: for ΔBP (change in arterial blood pressure) / ΔH (change in heart rate): in vivo; for ED50: intravenous dose causing 50% neuromuscular block; for RI (recovery index): spontaneous recovery, 25-75% neuromuscular response; for Onset: time to 80-85% neuromuscular block
From the text: Both electromyographic and mechanomyographic responses can be quantified.
The techniques described under a) and b) were employed in other species as needed with the modification that juvenile pigs were initially anesthetized with inhalation of halothane (Table 5) and monkeys were initially sedated with intramuscular ketamine injections prior to inducing and maintaining general anesthesia using pentobarbital and propofol administered intravenously (Table 6).

[4] = test system: anesthetized juvenile pigs; assay: animal or person; format: in vivo; conditions: pig; for VB (vagal block) / ΔBP (change in arterial blood pressure) / ΔH (change in heart rate): in vivo; for ED50: intravenous dose causing 50% neuromuscular block; for RI (recovery index): spontaneous recovery, 25-75% neuromuscular response; for Onset: time to 80-85% neuromuscular block
Method in brief: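 Electromyographic and mechanomyographic responses quantified. Monkeys sedated with intramuscular ketamine, then general anesthesia with intravenous pentobarbital and propofol; juvenile pigs induced with inhaled halothane.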

[5] = test system: dogs; assay: animal or person; format: in vivo; conditions: dog; for ΔBP (change in arterial blood pressure) / ΔH (change in heart rate): in vivo; for ED50: intravenous dose causing 50% neuromuscular block; for RI (recovery index): spontaneous recovery, 25-75% neuromuscular response; for Onset: time to 80-85% neuromuscular block
[6] = test system: rabbits; assay: In vivo neuromuscular block and cardiovascular side effects, rabbit (Example 8, Table 7); conditions: for ΔBP (change in arterial blood pressure) / ΔH (change in heart rate): in vivo; for ED50: intravenous dose causing 50% neuromuscular block; for RI (recovery index): spontaneous recovery, 25-75% neuromuscular response; for Onset: time to 80-85% neuromuscular block
[7] = test system: anesthetized rats (evoked responses of anterior tibial muscle); assay: Muscle relaxant (neuromuscular blocking) properties, anesthetized rat (Example 9, Table 9); conditions: rat; for ED50: intravenous dose causing 50% neuromuscular block, spread in brackets; for RI (recovery index): spontaneous recovery, 25-75% neuromuscular response; for Onset: time to 80-85% neuromuscular block
From the text: The data on muscle relaxant action were obtained on anesthetized rats, and when indicated, also on juvenile pigs
Adult, male albino rats were anesthetized with pentobarbital injected intraperitoneally. Juvenile, Duroc pigs 9-12 kg body weight were anesthetized with Chloralose Nembutal sodium mixture intraperitoneally after deep sedation with inhaled halothane. The trachea was cannulated for artificial respiration via a small animal respirator. The carotid artery was cannulated for recording blood pressure via a transducer and heart rate by a cardiotachograph on a polygraph. One external jugular vein was cannulated for i.v. drug administration. Neuromuscular function was monitored by electromyography, recording evoked responses from the anterior tibial muscle as a result of supramaximal nerve stimuli consisting of single or “train-of-four” rectangular pulses of 0.1-0.2 msec duration every 10-12 seconds, delivered to the sciatic or common peroneal nerve by a laboratory nerve stimulator. Another mode of stimulation included repeated single stimuli delivered at 0.1 Hz or 1 Hz. […] The agents were dissolved in physiologic saline and injected intravenously at appropriate time intervals. The intensity, onset, and duration of neuromuscular block and its type were determined with each agent. Through administering several doses, the doses corresponding to 50%, 80% and 90% neuromuscular block were determined. All agents were compared with selected standard neuromuscular blocking compounds, e.g., rocuronium.
as §1, §2, §3
HR=change in heart rate, %, at 80-85% neuromuscular blocking dose.
BP=change in arterial blood pressure, %, at 80-85% neuromuscular blocking dose.

[8] = at 80-85% neuromuscular blocking dose

Row | Compound | ED50 [1] | RI (recovery index) [1] | Onset [1] | VB (vagal block) [1] | ΔBP (change in arterial blood pressure) [1] | ΔH (change in heart rate) [1] | ED50 [2] | RI (recovery index) [2] | Onset [2] | ΔBP (change in arterial blood pressure) [3] | ΔH (change in heart rate) [3] | ED50 [3] | RI (recovery index) [3] | Onset [3] | VB (vagal block) [4] | ΔBP (change in arterial blood pressure) [4] | ΔH (change in heart rate) [4] | ED50 [4] | RI (recovery index) [4] | Onset [4] | further results
1 | COc1cc(C[N+]2(C)C3CCC2CC(OC(=O)C2C4C=CC(C4)C2C(=O)OC2CC4CCC(C2)[N+]4(C)Cc2ccc(OC(C)=O)c(OC)c2)C3)ccc1OC(C)=O.[Br-].[Br-] (stereo not drawn) [bis[N-(4-acetoxy-3-methoxybenzyl)tropanium-3α-yl]trans-3,6-endomethylene-1,2,3,6-tetrahydrophthalate dibromide] | 0.193 mg/kg | 0.4 min | 0.7 min | 20% | 0% | 5% | 0.15 mg/kg | 0.5 min | 0.55 min | 0% | 0% | 0.055 mg/kg | 0.5 min | 0.85 min | 43% | 0% | 0% | 0.19 mg/kg | 1 min | 0.6 min | VB (vagal block) [2, 8]: 25%; ΔBP (change in arterial blood pressure) [2, 8]: 0%; ΔH (change in heart rate) [2, 8]: 0%; ΔBP (change in arterial blood pressure) [5]: −25%; ΔH (change in heart rate) [5]: 40%; ED50 [5]: 0.35 mg/kg; RI (recovery index) [5]: 0.5 min; Onset [5]: 0.63 min; ΔBP (change in arterial blood pressure) [6]: 0%; ΔH (change in heart rate) [6]: 0%; ED50 [6]: 0.155 mg/kg; RI (recovery index) [6]: 0.65 min; Onset [6]: 0.65 min
2 | CC(=O)Oc1ccc(C[N+]2(C)C3CCCC2CC(OC(=O)CCCCCCC(=O)OC2CC4CCCC(C2)[N+]4(C)Cc2ccc(OC(C)=O)c(OC(C)=O)c2)C3)cc1OC(C)=O.[Br-].[Br-] (stereo not drawn) [bis[N-(3,4-diacetoxybenzyl)granataninium-3-yl]suberate dibromide] | 0.7 mg/kg | 0.5 min | 0.6 min | 80% | −20% | 0% | 0.45 mg/kg | 0.35 min | 0.4 min | 0% | 0% | 0.2 mg/kg | 0.4 min | 0.9 min | 80% | 0% | 0% | 0.25 mg/kg | 0.8 min | 0.6 min | VB (vagal block) ([2]; in vivo): 60%; ΔBP (change in arterial blood pressure) ([2]; in vivo): 0%; ΔH (change in heart rate) ([2]; in vivo): 0%; ΔBP (change in arterial blood pressure) [5]: −55%; ΔH (change in heart rate) [5]: 60%; ED50 [5]: 0.25 mg/kg; RI (recovery index) [5]: 0.45 min; Onset [5]: 0.8 min; ΔBP (change in arterial blood pressure) [6]: 0%; ΔH (change in heart rate) [6]: 0%; ED50 [6]: 0.475 mg/kg; RI (recovery index) [6]: 0.55 min; Onset [6]: 0.5 min
3 | CC(=O)Oc1ccc(C[N+]2(C)C3CCCC2CC(OC(=O)CCCC(=O)OC2CC4CCCC(C2)[N+]4(C)Cc2ccc(OC(C)=O)c(OC(C)=O)c2)C3)cc1OC(C)=O.[Br-].[Br-] (stereo not drawn) [bis[N-(3,4-diacetoxybenzyl)granataninium-3-yl]glutarate dibromide] | 0.7 mg/kg | 0.4 min | 0.7 min | 60% | −50% | 0% | 0.17 mg/kg | 0.45 min | 0.6 min | 0% | 0% | 0.075 mg/kg | 0.4 min | 0.7 min | 40% | 0% | 0% | 0.235 mg/kg | 0.9 min | 0.8 min | VB (vagal block) ([2]; in vivo): 0%; ΔBP (change in arterial blood pressure) ([2]; in vivo): 0%; ΔH (change in heart rate) ([2]; in vivo): 0%; ΔBP (change in arterial blood pressure) [5]: −18%; ΔH (change in heart rate) [5]: 50%; ED50 [5]: 0.225 mg/kg; RI (recovery index) [5]: 0.6 min; Onset [5]: 0.65 min; ΔBP (change in arterial blood pressure) [6]: 0%; ΔH (change in heart rate) [6]: 0%; ED50 [6]: 0.165 mg/kg; RI (recovery index) [6]: 0.55 min; Onset [6]: 0.65 min
4 | Bis[4-dimethylaminocyclohexyl]glutarate bis(benzyl bromide) [reference compound] |  |  |  |  |  |  |  |  |  |  |  |  |  |  |  |  |  |  |  |  | ED50 [7]: 2500 µg/kg; RI (recovery index) [7]: 1.65 (0.1) min; Onset [7]: 1.6 (0.1) min
5 | COc1cc(C[N+](C)(C)C2CCC(OC(=O)CCCC(=O)OC3CCC([N+](C)(C)Cc4ccc(OC(C)=O)c(OC)c4)CC3)CC2)ccc1OC(C)=O.[Br-].[Br-] (stereo not drawn) [Bis[4-dimethylaminocyclohexyl]glutarate bis(4-acetoxy-3-methoxybenzyl bromide)] |  |  |  |  |  |  |  |  |  |  |  |  |  |  |  |  |  |  |  |  | % VB at ED80 nmb (vagal block) [7, 8]: 73 (9) %; BP (change in arterial blood pressure) [7, 8]: −14 (5) %; HR (change in heart rate) [7, 8]: −5 (2) %; ED50 [7]: 2075 (188) μg/kg; RI (recovery index) [7]: 0.9 (0.05) min; Onset [7]: 0.84 (0.06) min

Reference: patent publication US6376510B1, “Neuromuscular relaxants” (Newlaxant LLC, priority 1997, dated 2002)
